Assay results taken from patent publication US9980943B2, “Methods of treating muscular dystrophy” (BOARD OF REGENTS OF THE NEVADA SYSTEM OF HIGHER EDUCATION, …, priority 2013, dated 2018).

What was measured:
Type in all cases: cell-based, mouse
[1] = system: α7 integrin (LacZ reporter in α7βgal+/− myoblasts); assay: Myoblast α7+/LacZ integrin FDG assay (Burkin assay in myoblasts, 96-well); conditions: SU9516 analogs, 96-well, N=3-6
[2] = system: β-galactosidase in CMV-LacZ C2C12 myotubes; assay: CMV-LacZ secondary screen in C2C12 myotubes (β-Gal stabilizing assay); conditions: SU9516 analogs, C2C12 CMV-LacZ, N=2
Procedure, shortened: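 β-gal stabilization was measured in C2C12 myoblasts or myotubes stably transfected with a CMV-driven LacZ construct, using the FDG β-gal assay. Compounds were tested in dose-response at 0.5, 1, 5, 10, 20 and 40 μM, with two replicates per point.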

[3] = system: β-galactosidase in CMV-LacZ C2C12 myoblasts; assay: CMV-LacZ secondary screen in C2C12 myoblasts (β-Gal stabilizing assay); conditions: SU9516 analogs, C2C12 CMV-LacZ, N=2
Procedure, shortened: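 Dose-response runs at 0.5–40 μM (0.5, 1, 5, 10, 20, 40 μM; N=2 per point) used a clonal C2C12 line carrying CMV-LacZ. Cells were assayed as myoblasts or as differentiated myotubes, and β-galactosidase levels were read with the FDG fluorogenic substrate.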

[4] = system: α7 integrin (LacZ reporter in α7+/LacZ myotubes); assay: Myotube α7 integrin FDG assay (Burkin assay in myotubes, 96-well); conditions: SU9516 analogs, 96-well, N=3-6

Structure (SMILES) | Burkin Assay in Myoblasts, value relative to DMSO ([1]; 0.5 uM) | Burkin Assay in Myoblasts, value relative to DMSO ([1]; 1 uM) | Burkin Assay in Myoblasts, value relative to DMSO ([1]; 5 uM) | Burkin Assay in Myoblasts, value relative to DMSO ([1]; 10 uM) | Burkin Assay in Myoblasts, value relative to DMSO ([1]; 20 uM) | Burkin Assay in Myoblasts, value relative to DMSO ([1]; 40 uM) | CMV-LACZ in Myotubes, value relative to DMSO ([2]; 0.5 uM) | CMV-LACZ in Myotubes, value relative to DMSO ([2]; 1 uM) | CMV-LACZ in Myotubes, value relative to DMSO ([2]; 5 uM) | CMV-LACZ in Myotubes, value relative to DMSO ([2]; 10 uM) | CMV-LACZ in Myotubes, value relative to DMSO ([2]; 20 uM) | CMV-LACZ in Myotubes, value relative to DMSO ([2]; 40 uM) | CMV-LACZ in Myoblasts, value relative to DMSO ([3]; 0.5 uM) | CMV-LACZ in Myoblasts, value relative to DMSO ([3]; 5 uM) | CMV-LACZ in Myoblasts, value relative to DMSO ([3]; 10 uM) | CMV-LACZ in Myoblasts, value relative to DMSO ([3]; 20 uM) | CMV-LACZ in Myoblasts, value relative to DMSO ([3]; 40 uM) | Burkin Assay in Myotubes, value relative to DMSO ([4]; 0.5 uM) | Burkin Assay in Myotubes, value relative to DMSO ([4]; 1 uM) | Burkin Assay in Myotubes, value relative to DMSO ([4]; 5 uM) | other results
COc1cc(OC)c(/C=C2/C(=O)Nc3ccccc32)c(OC)c1 [NCGC00015546-04] | 0.8923 | 0.9228 | 0.3771 | 0.214 | 0.1937 | 0.1497 | 1.1555 | 1.1427 | 1.0553 | 1.1513 | 1.0230 | 1.0700 | 1.1442 | 1.4889 | 1.2439 | 0.8083 | 0.5873 | 0.9443 | 1.051 | 0.8529 | Burkin Assay in Myotubes, value relative to DMSO ([4]; 10 uM): 0.8253; Burkin Assay in Myotubes, value relative to DMSO ([4]; 20 uM): 0.7881; Burkin Assay in Myotubes, value relative to DMSO ([4]; 40 uM): 0.7965
O=Nc1c(-c2c(O)[nH]c3cc(Br)ccc23)[nH]c2ccccc12 [NCGC00094112-04] | 1.019 | 0.9927 | 0.5722 | 0.4943 | 0.4509 | 0.3428 | 1.0409 | 0.8864 | 0.8123 | 0.7933 | 0.7190 | 0.5420 | 1.1721 | 1.0309 | 1.0782 | 0.4403 | 0.3627 | 0.7402 | 0.8159 | 0.7596 | CMV-LACZ in Myoblasts, value relative to DMSO ([3]; 1 uM): 1.1779; Burkin Assay in Myotubes, value relative to DMSO ([4]; 10 uM): 0.629; Burkin Assay in Myotubes, value relative to DMSO ([4]; 20 uM): 0.6813; Burkin Assay in Myotubes, value relative to DMSO ([4]; 40 uM): 0.35
Cc1cc(C)c(/C=C2\C(=O)Nc3ccccc32)[nH]1 [NCGC00094381-03] | 0.9368 | 0.9952 | 0.7327 | 0.6579 | 0.6668 | 0.5203 | 0.9227 | 1.2227 | 1.1125 | 1.5444 | 10.9800 | 18.6030 | 0.9504 | 0.8667 | 1.0089 | 0.7777 | 1.0253 | 0.8564 | 0.9334 | 0.9015 | Burkin Assay in Myotubes, value relative to DMSO ([4]; 10 uM): 1.024; Burkin Assay in Myotubes, value relative to DMSO ([4]; 20 uM): 0.9497; Burkin Assay in Myotubes, value relative to DMSO ([4]; 40 uM): 1.151
Cc1cc(C)c(/C=C2\C(=O)Nc3ccccc32)[nH]1 [NCGC00094381-05] | 0.9433 | 0.9804 | 0.7532 | 0.7145 | 0.8879 | 0.7578 | 1.0045 | 0.8773 | 1.2069 | 2.8305 | 6.8950 | 18.0610 | 0.8383 | 0.9614 | 0.8606 | 0.7147 | 0.8220 | 0.9234 | 0.931 | 1.047 | Burkin Assay in Myotubes, value relative to DMSO ([4]; 10 uM): 1.319; Burkin Assay in Myotubes, value relative to DMSO ([4]; 20 uM): 1.05; Burkin Assay in Myotubes, value relative to DMSO ([4]; 40 uM): 1.138
CCN(CC)CCNC(=O)c1c(C)[nH]c(/C=C2\C(=O)Nc3ccc(F)cc32)c1C [NCGC00164631-03] | 0.8373 | 1.032 | 0.3224 | 0.01373 | 0.01408 | 0.01283 | 1.2682 | 1.2736 | 0.8420 | 0.3964 | 0.6690 | 0.7680 | 0.8658 | 0.7817 | 0.2763 | 0.1830 | 0.1767 | 0.9512 | 0.9445 | 0.5505 | Burkin Assay in Myotubes, value relative to DMSO ([4]; 10 uM): 0.1881; Burkin Assay in Myotubes, value relative to DMSO ([4]; 20 uM): 0.09031; Burkin Assay in Myotubes, value relative to DMSO ([4]; 40 uM): 0.07758
CCN(CC)CCNC(=O)c1c(C)[nH]c(/C=C2\C(=O)Nc3ccc(F)cc32)c1C [NCGC00164631-04] | 1.023 | 1.011 | 0.529 | 0.08696 | 0.01476 | 0.01361 | 1.1336 | 0.9164 | 0.8803 | 0.3804 | 0.6490 | 0.6690 | 0.8225 | 0.6842 | 0.4405 | 0.2323 | 0.1827 | 0.9761 | 0.9998 | 0.7739 | Burkin Assay in Myotubes, value relative to DMSO ([4]; 10 uM): 0.2132; Burkin Assay in Myotubes, value relative to DMSO ([4]; 20 uM): 0.08218; Burkin Assay in Myotubes, value relative to DMSO ([4]; 40 uM): 0.08093
O=C1C(c2c(O)[nH]c3ccccc23)=Nc2ccccc21 [NCGC00179302-02] | 1.061 | 1.0859 | 0.606 | 0.7163 | 0.843 | 0.8067 | 0.9618 | 0.9736 | 1.1533 | 0.9196 | 1.0030 | 1.1410 | 1.1867 | 2.4679 | 1.6628 | 1.0247 | 1.2873 | 0.9349 | 0.9377 | 0.8181 | Burkin Assay in Myotubes, value relative to DMSO ([4]; 10 uM): 0.7913; Burkin Assay in Myotubes, value relative to DMSO ([4]; 20 uM): 0.682; Burkin Assay in Myotubes, value relative to DMSO ([4]; 40 uM): 0.6871
